Data from ChEMBL document CHEMBL4184281, “Pharmacology and in vivo efficacy of pyridine-pyrimidine amides that inhibit microtubule polymerization” (Bioorg Med Chem Lett, 2018).
Calls of active or inactive are those of the source. No cut-off for these calls is given here.

What was measured:
[1] = Toxicity in mouse; format: organism-based; details: in vivo
[2] = system: SNU-16; assay: Antitumor activity against human SNU16 cells xenografted in nude BALB/c mouse assessed as tumor growth inhibition relative to control; format: functional
[3] = Toxicity in mouse administered as single po dose; format: organism-based; details: in vivo
[4] = system: A2780; assay: Antitumor activity against human A2780 cells xenografted in nude BALB/c mouse assessed as tumor growth inhibition at 20 mg/kg, po qd measured up to 12 days post dose; format: functional, organism-based
[5] = system: Mus musculus; assay: Toxicity in nude BALB/c mouse xenografted with human A2780 cells assessed as change in body weight at 20 mg/kg, po qd measured up to 12 days post dose; format: organism-based; details: in vivo, 288 h
[6] = Unbound fraction in plasma (unknown origin); format: ADME, cell-free
[7] = Protein binding in plasma (unknown origin); format: ADME, cell-free; details: read-out: PPB (converted)
[8] = Drug recovery in plasma (unknown origin); format: ADME, cell-free
[9] = Stability in human plasma assessed as parent compound remaining after 75 mins relative to initial time; format: ADME, cell-free; details: read-out: Stability
[10] = Stability in human plasma assessed as parent compound remaining after 2 hrs relative to initial time; format: ADME, cell-free; details: read-out: Stability
[11] = Stability in human plasma assessed as parent compound remaining after 4 hrs relative to initial time; format: ADME, cell-free; details: read-out: Stability
[12] = Stability in human plasma assessed as parent compound remaining after 8 hrs relative to initial time; format: ADME, cell-free; details: read-out: Stability
[13] = Stability in human plasma assessed as parent compound remaining after 24 hrs relative to initial time; format: ADME, cell-free; details: read-out: Stability
[14] = Half life in mouse liver microsomes; format: ADME, microsome
[15] = Half life in rat liver microsomes; format: ADME, microsome
[16] = Half life in dog liver microsomes; format: ADME, Canis lupus familiaris, microsome
[17] = Half life in human liver microsomes; format: ADME, microsome
[18] = target: T1, Cytochrome P450 1A2 (Homo sapiens, UniProt P05177); assay: Inhibition of CYP1A2 (unknown origin); format: ADME
T1 sequence (P05177 whole entry): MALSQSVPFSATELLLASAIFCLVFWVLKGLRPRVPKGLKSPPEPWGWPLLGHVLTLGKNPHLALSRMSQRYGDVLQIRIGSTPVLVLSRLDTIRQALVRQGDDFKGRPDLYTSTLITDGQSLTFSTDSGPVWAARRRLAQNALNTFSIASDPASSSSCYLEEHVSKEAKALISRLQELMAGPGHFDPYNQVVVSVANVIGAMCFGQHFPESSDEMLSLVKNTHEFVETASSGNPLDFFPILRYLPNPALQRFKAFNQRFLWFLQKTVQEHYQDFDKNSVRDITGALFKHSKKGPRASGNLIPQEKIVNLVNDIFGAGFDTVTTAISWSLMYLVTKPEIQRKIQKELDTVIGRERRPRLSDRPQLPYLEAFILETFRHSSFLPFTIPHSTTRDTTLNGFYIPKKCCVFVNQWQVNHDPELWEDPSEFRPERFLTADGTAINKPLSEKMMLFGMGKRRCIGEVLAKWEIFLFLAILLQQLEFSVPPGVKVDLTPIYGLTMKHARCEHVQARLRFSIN

[19] = target: Cytochrome P450 2C9 (Homo sapiens, UniProt P11712); assay: Inhibition of CYP2C9 (unknown origin); format: ADME
[20] = target: Cytochrome P450 2C19 (Homo sapiens, UniProt P33261); assay: Inhibition of CYP2C19 (unknown origin); format: ADME
[21] = target: Cytochrome P450 2D6 (Homo sapiens, UniProt P10635); assay: Inhibition of CYP2D6 (unknown origin); format: ADME
[22] = target: Cytochrome P450 3A4 (Homo sapiens, UniProt P08684); assay: Inhibition of CYP3A4 (unknown origin); format: ADME
[23] = system: Hs-578T; assay: Antiproliferative activity against human Hs 578T cells up to 1000 nM after 72 hrs by ATPlite assay; format: functional, cell-based
[24] = system: BT-549; assay: Antiproliferative activity against human BT549 cells up to 1000 nM after 72 hrs by ATPlite assay; format: functional, cell-based
[25] = system: MDA-MB-436; assay: Antiproliferative activity against human MDA-MB-436 cells up to 1000 nM after 72 hrs by ATPlite assay; format: functional, cell-based
[26] = system: Hs-578T; assay: Antiproliferative activity against paclitaxel-resistant human Hs 578T cells 20B clone up to 1000 nM after 72 hrs by ATPlite assay; format: functional, cell-based
[27] = system: Hs-578T; assay: Antiproliferative activity against paclitaxel-resistant human Hs 578T cells 10C clone up to 1000 nM after 72 hrs by ATPlite assay; format: functional, cell-based
[28] = system: BT-549; assay: Antiproliferative activity against paclitaxel-resistant human BT549 cells 10A clone up to 1000 nM after 72 hrs by ATPlite assay; format: functional, cell-based
[29] = system: MDA-MB-436; assay: Antiproliferative activity against paclitaxel-resistant human MDA-MB-436 cells 20A clone up to 1000 nM after 72 hrs by ATPlite assay; format: functional, cell-based
[30] = system: MDA-MB-436; assay: Antiproliferative activity against paclitaxel-resistant human MDA-MB-436 cells 20B clone up to 1000 nM after 72 hrs by ATPlite assay; format: functional, cell-based
[31] = system: Breast carcinoma cell; assay: Antitumor activity against chemo-refractory disease patient-derived breast cancer cells xenografted in NOD/SCID mouse assessed as tumor growth inhibition at 20 mg/kg, iv administered weekly for 15 days; format: functional, organism-based; details: Homo sapiens
[32] = Tmax in CD-1 mouse administered as single po dose by mass spectrometry; format: ADME, organism-based; details: in vivo
[33] = Tmax in rat administered as single po dose by mass spectrometry; format: ADME, organism-based; details: in vivo

Cytochrome P450 2C19, sequence (P33261 whole entry): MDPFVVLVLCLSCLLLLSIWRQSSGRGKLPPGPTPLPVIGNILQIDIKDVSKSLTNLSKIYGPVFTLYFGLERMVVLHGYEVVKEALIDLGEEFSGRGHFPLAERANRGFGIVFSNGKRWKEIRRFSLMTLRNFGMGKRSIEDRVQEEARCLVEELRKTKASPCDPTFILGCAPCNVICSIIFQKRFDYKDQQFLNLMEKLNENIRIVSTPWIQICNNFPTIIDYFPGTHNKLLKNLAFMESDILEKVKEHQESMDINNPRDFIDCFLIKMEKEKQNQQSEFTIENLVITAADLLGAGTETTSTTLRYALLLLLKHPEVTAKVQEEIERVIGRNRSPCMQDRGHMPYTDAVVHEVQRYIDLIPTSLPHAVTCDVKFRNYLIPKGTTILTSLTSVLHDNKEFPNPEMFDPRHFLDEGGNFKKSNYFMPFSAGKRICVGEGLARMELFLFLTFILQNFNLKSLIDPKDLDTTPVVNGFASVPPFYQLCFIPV
Cytochrome P450 2C9, sequence (P11712 whole entry): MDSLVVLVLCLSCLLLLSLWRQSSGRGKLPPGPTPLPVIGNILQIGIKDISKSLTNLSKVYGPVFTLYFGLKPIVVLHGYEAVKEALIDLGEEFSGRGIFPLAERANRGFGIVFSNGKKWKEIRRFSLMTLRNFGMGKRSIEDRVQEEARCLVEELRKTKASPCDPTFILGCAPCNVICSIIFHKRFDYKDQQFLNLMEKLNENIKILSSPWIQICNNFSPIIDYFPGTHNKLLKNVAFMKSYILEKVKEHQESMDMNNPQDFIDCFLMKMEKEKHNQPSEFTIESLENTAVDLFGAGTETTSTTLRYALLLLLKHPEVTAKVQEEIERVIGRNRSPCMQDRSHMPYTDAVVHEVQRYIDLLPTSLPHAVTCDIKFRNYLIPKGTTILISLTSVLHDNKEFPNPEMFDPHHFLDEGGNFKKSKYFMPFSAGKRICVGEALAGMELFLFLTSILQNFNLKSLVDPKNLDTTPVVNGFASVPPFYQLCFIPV
Cytochrome P450 3A4, sequence (P08684 whole entry): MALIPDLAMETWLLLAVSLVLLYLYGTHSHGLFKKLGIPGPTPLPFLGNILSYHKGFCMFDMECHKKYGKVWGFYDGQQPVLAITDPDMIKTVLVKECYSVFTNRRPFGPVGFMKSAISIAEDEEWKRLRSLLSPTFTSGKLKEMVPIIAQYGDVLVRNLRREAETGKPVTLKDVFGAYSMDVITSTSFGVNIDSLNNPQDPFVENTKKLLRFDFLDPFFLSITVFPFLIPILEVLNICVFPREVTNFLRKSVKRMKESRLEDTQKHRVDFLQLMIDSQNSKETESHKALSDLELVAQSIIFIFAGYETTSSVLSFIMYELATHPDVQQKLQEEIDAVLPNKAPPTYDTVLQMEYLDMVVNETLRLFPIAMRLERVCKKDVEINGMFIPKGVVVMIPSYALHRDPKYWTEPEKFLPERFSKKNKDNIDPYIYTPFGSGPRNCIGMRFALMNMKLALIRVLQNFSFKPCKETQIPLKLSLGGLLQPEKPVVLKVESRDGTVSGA
Cytochrome P450 2D6, sequence (P10635 whole entry): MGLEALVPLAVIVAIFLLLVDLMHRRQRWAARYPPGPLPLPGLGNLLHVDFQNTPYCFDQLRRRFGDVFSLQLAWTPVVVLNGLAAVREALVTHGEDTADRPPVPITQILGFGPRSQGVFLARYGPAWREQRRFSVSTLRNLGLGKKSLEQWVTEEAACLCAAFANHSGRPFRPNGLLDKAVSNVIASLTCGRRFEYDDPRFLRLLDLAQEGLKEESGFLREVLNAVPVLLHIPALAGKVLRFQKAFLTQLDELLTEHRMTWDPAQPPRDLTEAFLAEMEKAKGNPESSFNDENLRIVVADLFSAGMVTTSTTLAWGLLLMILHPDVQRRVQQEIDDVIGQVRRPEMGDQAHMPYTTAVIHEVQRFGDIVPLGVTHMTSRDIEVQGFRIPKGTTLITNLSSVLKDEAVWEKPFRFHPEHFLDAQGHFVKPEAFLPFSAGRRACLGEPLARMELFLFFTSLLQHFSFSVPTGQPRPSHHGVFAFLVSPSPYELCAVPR

Row | SMILES | MTD [1] [mg/kg] | TGI [2] [%] | MTD [3] [mg/kg] | TGI [4] | Activity [5] | fraction unbound [6] | fraction unbound [7] | Drug recovery [8] [%] | remaining at 1.25 h [9] [%] | remaining at 2 h [10] [%] | remaining at 4 h [11] [%] | remaining at 8 h [12] [%] | remaining at 24 h [13] [%] | half-life [14] [min] | half-life [15] [min] | half-life [16] [min] | half-life [17] [min] | IC50 [18] [µM] | IC50 [19] [µM] | IC50 [20] [µM] | other results
1 | Cc1ncc(C(=O)Nc2ccc(-c3ccsc3)cn2)cn1 | ≤ 6 | 135 | ≤ 20 | Active | Non-Toxic | 0.0507 | 0.0507 | 93.56 | 91.7 | 92.2 | 86.9 | 71.6 | 49 | 27.3 | 25.9 | 35.2 | 7.5 | > 30 | > 30 | > 30 | IC50 [21]: > 30 µM; IC50 [22]: > 30 µM
2 | CC(=O)O[C@H]1C(=O)[C@@]2(C)[C@H]([C@H](OC(=O)c3ccccc3)[C@]3(O)C[C@H](OC(=O)[C@H](O)[C@@H](NC(=O)c4ccccc4)c4ccccc4)C(C)=C1C3(C)C)[C@]1(OC(C)=O)CO[C@@H]1C[C@@H]2O | – | – | – | – | – | – | – | – | – | – | – | – | – | – | – | – | – | – | – | – | Activity [23]: Active; Activity [24]: Active; Activity [25]: Active; Activity [26]: inactive; Activity [27]: inactive; Activity [28]: inactive; Activity [29]: inactive; Activity [30]: inactive; TGI [31]: inactive
3 | Cc1ncc(C(=O)Nc2ccc(-c3cccc(OC4CC4)c3)cn2)cn1 | ≤ 6 | 100 | ≤ 20 | Active | Non-Toxic | 0.0061 | 0.0061 | 79.64 | 89.4 | 81.1 | 91.5 | 74.1 | 89.7 | 13.7 | 10.9 | 20.6 | 144 | > 30 | > 30 | > 30 | Tmax [32]: ≤ 15 min; Tmax [33]: 15 min; IC50 [21]: > 30 µM; IC50 [22]: > 30 µM
